Measured values taken from patent publication US11117905B2, “Bisaryl heterocycles as NRF2 activators” (GLAXOSMITHKLINE INTELLECTUAL PROPERTY DEVELOPMENT LIMITED, priority 2016, dated 2021).

System: NQO1 specific enzyme activity in BEAS-2B cells (marker for NRF2 activation)
Experiment: BEAS-2B NQO1 MTT Assay
Format: cell-based
Conditions: NQO1 specific activity induction, 48 hours with compound
Source text: NAD(P)H:quinone oxidoreductase 1 (NQO1), also called DT diaphorase, is a homodimeric FAD-containing enzyme that catalyzes obligatory NAD(P)H-dependent two-electron reductions of quinones and protects cells against the toxic and neoplastic effects of free radicals and reactive oxygen species arising from one-electron reductions. The transcription of NQO1 is finely regulated by NRF2, and thus NQO1 activity is a good marker for NRF2 activation. On day one, frozen BEAS-2B cells (ATCC) were thawed in a water bath, counted, and re-suspended at a concentration of 250,000 cells/mL. Fifty microliters of cells were plated in 384 well black clear-bottomed plates. Plates were incubated at 37° C., 5% CO2 overnight. On day two, plates were centrifuged and 50 nL of compound or controls were added to the cells. Plates were then incubated at 37° C., 5% CO2 for 48 hours. On day four, medium was aspirated from the plate and crude cell lysates were made by adding 13 uL of 1× Cell Signaling Technologies lysis buffer with 1 Complete, Mini, EDTA-free Protease Inhibitor Tablet (Roche) for each 10 mL of lysis buffer. After lysis plates were incubated for 20 minutes at room temperature. Two microliters of lysate were removed for use in Cell Titer Glo assay (Promega) and MTT cocktail was prepared (Prochaska et. al. 1998) for measurement of NQO1 activity. Fifty microliters of MTT cocktail is added to each well, plate is centrifuged, and analyzed on an Envision plate reader (Perkin Elmer) using Absorbance 570 nm label for 30 minutes. Product formation was measured kinetically and the pEC50 of NQO1 specific activity induction was calculated by plotting the change in absorbance (Delta OD/min) versus the log of compound concentration followed by 3-parameter fitting.
pEC50 is the negative log of the EC50.
EC50s<1 nM (+++++), EC50s 1 nM-10 nM (++++), EC50s 10 nM-100 nM (+++), EC50s 100 nM-1 uM (++), EC50s 1 uM-10 uM (+), EC50s>10 uM (−), or were not determined (ND).

| Compound | EC50 | EC50 (Homo sapiens, BEAS-2B, 48 h) |
| --- | --- | --- |
| CC[C@@H]1CN(Cc2cc(C(CC(=O)O)c3ccc4c(nnn4CC)c3C)sc2C)S(=O)(=O)c2ccccc2O1 (single isomer, unassigned; isomer 1) [Example 20, (R or S)-3-(4-(((R)-4-Ethyl-1,1-dioxido-3,4-dihydro-2H-benzo[b][1,4,5]oxathiazepin-2-yl)methyl)-5-methylthiophen-2-yl)-3-(1-ethyl-4-methyl-1H-benzo[d][1,2,3]triazol-5-yl)propanoic acid Isomer 1] | 0.01 to 0.1 µM |  |
| CCn1nnc2c(C)c([C@H](c3cc(CN4C[C@@H](C)Cc5ncccc5S4(=O)=O)c(C)s3)C(C)(C)C(=O)O)ccc21 [Example 19, (S)-3-(1-Ethyl-4-methyl-1H-benzo[d][1,2,3]triazol-5-yl)-2,2-dimethyl-3-(5-methyl-4-(((S)-4-methyl-1,1-dioxido-4,5-dihydropyrido[2,3-f][1,2]thiazepin-2(3H)-yl)methyl)thiophen-2-yl)propanoic Acid] |  | < 0.001 µM |
| CCn1nnc2c(C)c([C@H](c3cc(CN4C[C@H](C)Cc5ncccc5S4(=O)=O)c(C)s3)C(C)(C)C(=O)O)ccc21 [Example 16, (S)-3-(1-Ethyl-4-methyl-1H-benzo[d][1,2,3]triazol-5-yl)-2,2-dimethyl-3-(5-methyl-4-(((R)-4-methyl-1,1-dioxido-4,5-dihydropyrido[2,3-f][1,2]thiazepin-2(3H)-yl)methyl)thiophen-2-yl)propanoic Acid] |  | 0.001 to 0.01 µM |
| CC[C@@H]1CN(Cc2cc([C@@H](c3ccc4c(nnn4CC)c3C)C(C)(C)C(=O)O)sc2Cl)S(=O)(=O)c2ccccc2O1 [Example 3, (S)-3-(5-Chloro-4-(((R)-4-ethyl-1,1-dioxido-3,4-dihydro-2H-benzo[b][1,4,5]oxathiazepin-2-yl)methyl)thiophen-2-yl)-3-(1-ethyl-4-methyl-1H-benzo[d][1,2,3]triazol-5-yl)-2,2-dimethylpropanoic acid] |  | < 0.001 µM |
| CCn1nnc2c(C)c([C@H](c3cc(CN4C[C@@H](C)Cc5ccccc5S4(=O)=O)c(C)s3)C(C)(C)C(=O)O)ccc21 [Example 18, (S)-3-(1-Ethyl-4-methyl-1H-benzo[d][1,2,3]triazol-5-yl)-2,2-dimethyl-3-(5-methyl-4-(((S)-4-methyl-1,1-dioxido-4,5-dihydrobenzo[f][1,2]thiazepin-2(3H)-yl)methyl)thiophen-2-yl)propanoic Acid] |  | < 0.001 µM |
| CC[C@@H]1CN(Cc2cc([C@@H](CC(=O)O)c3ccc4c(nnn4CC)c3C)sc2Cl)S(=O)(=O)c2cnccc2O1 [Example 1, (S)-3-(5-Chloro-4-(((R)-4-ethyl-1,1-dioxido-3,4-dihydro-2H-pyrido[4,3-b][1,4,5]oxathiazepin-2-yl)methyl)thiophen-2-yl)-3-(1-ethyl-4-methyl-1H-benzo[d][1,2,3]triazol-5-yl)propanoic acid] |  | 0.1 to 1 µM |
| CC[C@@H]1CN(Cc2cc([C@H](CC(=O)O)c3ccc4c(nnn4CC)c3C)sc2C)S(=O)(=O)c2cnccc2O1 [Example 47, (R)-3-(4-(((R)-4-Ethyl-1,1-dioxido-3,4-dihydro-2H-pyrido[4,3-b][1,4,5]oxathiazepin-2-yl)methyl)-5-methylthiophen-2-yl)-3-(1-ethyl-4-methyl-1H-benzo[d][1,2,3]triazol-5-yl)propanoic Acid] |  | 0.01 to 0.1 µM |
| CC[C@H]1Cc2ccc(C(F)(F)F)cc2S(=O)(=O)N(Cc2cc([C@@H](c3ccc4c(nnn4CC)c3C)C(C)(C)C(=O)O)sc2C)C1 [Example 55, (S)-3-(4-(((S)-4-Ethyl-1,1-dioxido-8-(trifluoromethyl)-4,5-dihydrobenzo[f][1,2]thiazepin-2(3H)-yl)methyl)-5-methylthiophen-2-yl)-3-(1-ethyl-4-methyl-1H-benzo[d][1,2,3]triazol-5-yl)-2,2-dimethylpropanoic Acid] |  | < 0.001 µM |
| CC[C@H]1Cc2ccc(C(F)(F)F)cc2S(=O)(=O)N(Cc2nc([C@@H](c3ccc4c(nnn4CC)c3C)C(C)(C)C(=O)Nc3cccnc3)sc2C)C1 [Example 48, (S)-3-(4-(((S)-4-Ethyl-1,1-dioxido-8-(trifluoromethyl)-4,5-dihydrobenzo[f][1,2]thiazepin-2(3H)-yl)methyl)-5-methylthiazol-2-yl)-3-(1-ethyl-4-methyl-1H-benzo[d][1,2,3]triazol-5-yl)-2,2-dimethyl-N-(pyridin-3-yl)propanamide] |  | 0.01 to 0.1 µM |
| CC[C@@H]1CN(Cc2nc([C@@H](c3ccc4c(nnn4CC)c3C)C(C)(C)C(=O)O)sc2C)S(=O)(=O)c2cnccc2O1 [Example 27, (S)-3-(4-(((R)-4-Ethyl-1,1-dioxido-3,4-dihydro-2H-pyrido[4,3-b][1,4,5]oxathiazepin-2-yl)methyl)-5-methylthiazol-2-yl)-3-(1-ethyl-4-methyl-1H-benzo[d][1,2,3]triazol-5-yl)-2,2-dimethylpropanoic Acid] |  | < 0.001 µM |
| CC[C@@H]1CN(Cc2cc([C@H](CC(=O)O)c3ccc4c(nnn4CC)c3C)sc2C)S(=O)(=O)c2cccnc2O1 [Example 46, (R)-3-(4-(((R)-4-Ethyl-1,1-dioxido-3,4-dihydro-2H-pyrido[2,3-b][1,4,5]oxathiazepin-2-yl)methyl)-5-methylthiophen-2-yl)-3-(1-ethyl-4-methyl-1H-benzo[d][1,2,3]triazol-5-yl)propanoic Acid] |  | 0.01 to 0.1 µM |
| CC[C@H]1Cc2ncccc2S(=O)(=O)N(Cc2nc([C@@H](c3ccc4c(nnn4CC)c3C)C(C)(C)C(=O)Nc3cccnc3)sc2C)C1 [Example 34, (S)-3-(4-(((S)-4-Ethyl-1,1-dioxido-4,5-dihydropyrido[2,3-f][1,2]thiazepin-2(3H)-yl)methyl)-5-methylthiazol-2-yl)-3-(1-ethyl-4-methyl-1H-benzo[d][1,2,3]triazol-5-yl)-2,2-dimethyl-N-(pyridin-3-yl)propanamide] |  | 0.1 to 1 µM |
| CC[C@@H]1CN(Cc2cc([C@@H](CC(=O)O)c3ccc4c(nnn4CC)c3C)sc2C)S(=O)(=O)c2cccnc2O1 [Example 24, (S)-3-(4-(((R)-4-Ethyl-1,1-dioxido-3,4-dihydro-2H-pyrido[2,3-b][1,4,5]oxathiazepin-2-yl)methyl)-5-methylthiophen-2-yl)-3-(1-ethyl-4-methyl-1H-benzo[d][1,2,3]triazol-5-yl)propanoic Acid] |  | 0.1 to 1 µM |
| CC[C@@H]1CN(Cc2nc(C(c3ccc4c(nnn4CC)c3C)C(C)(C)C(=O)O)sc2C)S(=O)(=O)c2ccccc2O1 (single isomer, unassigned; isomer 1) [Example 13, (R or S)-3-(4-(((R)-4-Ethyl-1,1-dioxido-3,4-dihydro-2H-benzo[b][1,4,5]oxathiazepin-2-yl)methyl)-5-methylthiazol-2-yl)-3-(1-ethyl-4-methyl-1H-benzo[d][1,2,3]triazol-5-yl)-2,2-dimethylpropanoic Acid Isomer 1] | 0.001 to 0.01 µM |  |
| CC[C@@H]1CN(Cc2cc([C@@H](c3ccc4c(nnn4CC)c3C)C(C)(C)C(=O)Nc3cccnc3)sc2C)S(=O)(=O)c2ccccc2O1 [Example 51, (S)-3-(4-(((R)-4-Ethyl-1,1-dioxido-3,4-dihydro-2H-benzo[b][1,4,5]oxathiazepin-2-yl)methyl)-5-methylthiophen-2-yl)-3-(1-ethyl-4-methyl-1H-benzo[d][1,2,3]triazol-5-yl)-2,2-dimethyl-N-(pyridin-3-yl)propanamide] |  | 0.001 to 0.01 µM |
